The text below walks through data of patent publication US8580975B2, “Synthesis of macrocyclic cancer chemotherapy agents and methods of use” (Purdue Research Foundation, priority 2008, dated 2013).

Experiment [1] concerns P388 murine leukemia cells. As to the kind of experiment: cell proliferation assay. It counts as cell-based.
Experiment [2] relates to P388 murine leukemia cells. The settings on record: background, natural peloruside A; cited from earlier work.
[3] abbreviates: Mus musculus, P388 murine leukemia cells.

For orientation: pIC50 means the negative decadic logarithm of the IC50, by convention in mol/L. Lower therefore signals a large IC50.

pIC50: −log10 of the molar value.

`CC[C@H](/C=C(/C)[C@@H]1C[C@@H](OC)C[C@H](O)C(C)(C)[C@@]2(O)O[C@@H](C[C@@H](OC)CC(=O)O1)C[C@@H](O)[C@H]2O)CO` [2-des-Hydroxy-7-des-methoxy-7-hydroxy-Peloruside A] gave a pIC50 in experiment [1] (setting [3]) of 6.49. On to epi-C-11 Peloruside A, for which, in experiment [1] (P388 murine leukemia cells), the pIC50 is 8.00. In experiment [1] (P388 murine leukemia cells), (+)-Peloruside A [reference compound] gave a pIC50 of 8.00. For the same compound, the “IC50 value, antitumor activity against P388 murine leukemia cells” value in experiment [2] is on record as 10 ng/mL. Turning to `CC[C@H](/C=C(/C)[C@@H]1C[C@@H](OC)C[C@H](O)C(C)(C)C(=O)[C@H](O)[C@H](OC)C[C@@H](O)C[C@@H](OC)CC(=O)O1)CO` [Open Chain Isomer Of 2-Des-Hydroxy-Peloruside A], the pIC50 in experiment [1] (Mus musculus, P388) is less than 5.30. In the case of `CC[C@H](/C=C(/C)[C@@H]1C[C@@H](OC)C[C@H](O)C(C)(C)[C@@]2(O)O[C@@H](C[C@@H](OC)CC(=O)O1)C[C@@H](OC)[C@H]2O)CO` [2-des-Hydroxy-Peloruside A], the pIC50 in experiment [1] (setting [3]) is 6.92.
